Measured values reported in US11192863B2, “Antiviral compounds and methods” (Biotron Limited, priority 2003, dated 2021).
Where two headings read alike, the source gives them in different places.

Tests used:
MHV (strain MHV-A59) = details: L929 cells
Vpu protein = Vpu protein (Human immunodeficiency virus type 1 group M subtype B, UniProt P05919); details: halo of growth score between zero and six; XL1-blue E. coli with pPL-Vpu, no adenine, 37° C.
229E-CoV E-protein = 229E-CoV E-protein (Human coronavirus 229E, UniProt P19741); assay: Bacterial bio-assay for 229E-CoV E-protein; details: halo of growth score; E. coli expressing E protein at 37° C.
229E-CoV E-protein, sequence (P19741 whole entry): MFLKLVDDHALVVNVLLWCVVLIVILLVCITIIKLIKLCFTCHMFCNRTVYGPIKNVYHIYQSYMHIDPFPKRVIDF

SARS-CoV E protein = SARS-CoV E protein (Severe acute respiratory syndrome coronavirus, UniProt P59637); type: cell-based
SARS-CoV E protein, sequence (P59637 whole entry, looked up): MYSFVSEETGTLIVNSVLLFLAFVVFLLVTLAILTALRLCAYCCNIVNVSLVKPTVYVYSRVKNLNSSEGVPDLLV

human coronavirus OC43 = assay: microbe, parasite or virus in culture; type: cell-based; details: Betacoronavirus 1, OC43, MRC5, 120 h, MRC-5 cells, 5 days post infection

Vpu protein, sequence (P05919 whole entry): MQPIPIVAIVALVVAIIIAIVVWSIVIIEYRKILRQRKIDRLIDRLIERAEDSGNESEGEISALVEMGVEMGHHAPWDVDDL

Structure (SMILES) | Percent reduction in Plaque number/# experiments (MHV (strain MHV-A59); 1 uM) | Percent reduction in Plaque number/# experiments (MHV (strain MHV-A59); 10 uM) | Toxic (noted in place of plaque reduction) (MHV (strain MHV-A59); 20 uM) | Vpu Inhibition (score/# of times tested) (Vpu protein) | 229E E protein Inhibition (score) (229E-CoV E-protein) | SARS E protein Inhibition (score/# of times tested) (SARS-CoV E protein) | inhibition at 2.5 µM (human coronavirus OC43) [%] | Percent reduction in Plaque number/# experiments (MHV (strain MHV-A59); 20 uM)
N=C(N)NC(=O)/C=C/c1cc(Br)ccc1F [5-bromo-2-fluorocinnamoylguanidine] | 31/1% | 81/2% | Toxic | 3.5/2 score | 1.4 | 2.00/1 score |  | 
COc1ccc(Br)cc1/C=C/C(=O)NC(=N)N [5-bromo-2-methoxycinnamoylguanidine] | 66/1% | 100/1% |  | 1.9/2 score | 3.6 |  | 24 | 
CC(C)(C)Nc1nc(N)c(C(=O)N=C(N)N)nc1Cl [5-tert-butylamino-amiloride] | 34/4% | 84/4% |  | 0.2/7 score | 0.3 | 2.01/2 score |  | 89/4%
COc1ccccc1/C=C/C(=O)NC(=N)N [(2-Methoxycinnamoyl)guanidine] | 23/2% | 85/2% |  | 1.7/4 score | 1.1 | 0.69/2 score |  | 90/2%
N=C(N)NC(=O)/C=C/c1cccc(Cl)c1 [(3-Chlorocinnamoyl)guanidine] | 39/2% | 86/2% |  | 4.38/4 score | 0.8 | 3.87/3 score |  | 94/1%
COc1cccc(/C=C/C(=O)NC(=N)N)c1 [(3-Methoxycinnamoyl)guanidine] | 37/3% | 87/2% |  | 1.52/6 score | 1.4 | 0.63/2 score |  | 92/2%
N=C(N)NC(=O)/C=C/c1cccc([N+](=O)[O-])c1 [(3-Nitrocinnamoyl)guanidine] | 42/3% | 77/3% |  | 0.9/1 score | 0.1 | 1.51/2 score |  | 95/2%
N=C(N)NC(=O)/C=C/c1ccc(O)cc1 [(4-Hydroxycinnamoyl)guanidine] | 13/1% | 15/1% |  | 1.1/2 score | 0.6 | 1.63/2 score |  | 19/1%
COc1ccc(/C=C/C(=O)NC(=N)N)cc1 [(4-Methoxycinnamoyl)guanidine] | 51/3% | 96/4% |  | 2.13/3 score | 0.1 | 0.88/2 score |  | 98/4%
NC(N)=NC(=O)c1ccc(Oc2ccccc2)cc1 [(4-Phenoxybenzoyl)guanidine] | 32/1% | 65/1% |  | 0.81/2 score | 2.3 | 0.57/2 score |  | 73/1%
C/C(=C\c1ccccc1)C(=O)NC(=N)N [(a-Methylcinnamoyl)guanidine, (α-Methylcinnamoyl)guanidine] | 51/2% | 75/3% |  | 0.6/2 score | 1.0 | 0.50/1 score |  | 81/2%
Cl.N=C(N)NC(=O)/C=C/c1ccccc1 [cinnamoylguanidine hydrochloride] | 56/1% | 72/2% |  | 0.6/2 score | 0.5 | 2.50/1 score |  | 85/1%
